The values that follow come from PMC8877233, “The Hydrophobicity and Antifungal Potentiation of Burkholdine Analogues” (Molecules, 2022).

Data set [1] in a line: RP-HPLC retention time as measure of hydrophilicity/hydrophobicity. The data set is classed as physicochemical. The conditions noted are these: chromatographic, Cosmosil 5C18-AR-II 4.6 x 150 mm, linear gradient 30–70% MeCN/H2O (0.1% TFA) for 30 min, 1 mL/min, UV 220 nm. The procedure:
[…] In all cases, the retention times of the (S)-Dab-containing peptides were shorter than those of the (R)-Dab-containing peptides, which were similar to those bearing L-Orn. The retention times of the cyclic peptides were shorter for Tat > D-Ser > L-Thr > L-Ser, while peptides bearing the undecanoic acid moiety eluted […] than those bearing the decanoic acid by about 2 min.

Data set [2] concerns S. cerevisiae (ATCC204504). The data set is classed as cell-based. As to conditions: ATCC204504, 24 h. The procedure:
Bacto yeast extract (0.63 g, 70161, Fluka, Barcelona, Spain), peptone (1.00 g, 26421, Mikuni, Japan), and glucose (1.00 g, 16806-25, Nacalai tesque, Japan) were added to H2O (50 mL) at room temperature and the mixture was heated to 60 °C. After 30 min, the mixture was sterilized by heating in an autoclave at 121 °C for 20 min.
DMSO (8 µL, 13406-55, Nacalai tesque, Japan) was added to YPD medium (750 µL). The test fungus culture solution (3 µL) was added to this solution (1.5 mL).
The inhibitor (each 1.0 mg; 3a–h, 4a–b, 5a–b, 6a–b, 7, 8) was dissolved in DMSO (40 µL).
The prepared test bacteria (50 µL) were placed in A1–A12 of a 96-well plate. Bk analogue (50 µL) was added to A1, pipetting was performed, and then 50 µL was extracted from A1 and placed in A2. This operation was repeated until A11, and 50 µL extracted from A11 was discarded. The well plate was closed and incubated at 30 °C. After 24 h, the MIC values were evaluated.

Converted amounts (≈) assume the structure as drawn. Starred links: 1 amine or outer side, 2 acyl side, 3 side chain; linkers in the order of their positions; H or OH if unused. Positions of bridges follow the written chain, without caps; N, C: chain ends. Non-standard residues stand in square brackets, D forms with d. Residues, ends and D or L forms follow the SMILES beside them. *: point of attachment. X12 = CCCCCCCCCCC(=O)N[C@H](C(=O)NC[C@H](CC(=O)[*:1])N[*:2])[C@@H](C)O; X11 = CCCCCCCCNC(=O)[C@H](O)[C@@H](O)C(=O)NC[C@H](CC(=O)[*:1])N[*:2]; X10 = CCCCCCCCCCCC(=O)N[C@@H](CO)C(=O)NC[C@@H](CC(=O)[*:1])N[*:2]; X13 = CCCCCCCCCCC(=O)N[C@@H](CO)C(=O)NC[C@H](CC(=O)[*:1])N[*:2]; X5 = CCCCCCCCCCCC(=O)N[C@@H](CO)C(=O)NC[C@H](CC(=O)[*:1])N[*:2]; X6 = CCCCCCCCCCC(=O)N[C@@H](CO)C(=O)NC[C@@H](CC(=O)[*:1])N[*:2]; X7 = CCCCCCCCCCCC(=O)N[C@H](CO)C(=O)NC[C@@H](CC(=O)[*:1])N[*:2]; X1 = CCCCCCCCCCC(=O)N[C@H](CO)C(=O)NC[C@@H](CC(=O)[*:1])N[*:2]; X4 = CCCCCCCCCCCC(=O)N[C@H](CO)C(=O)NC[C@H](CC(=O)[*:1])N[*:2]; X8 = CCCCCCCCCCC(=O)N[C@H](CO)C(=O)NC[C@H](CC(=O)[*:1])N[*:2]; X9 = CCCCCCCCNC(=O)[C@H](O)[C@@H](O)C(=O)*; Undecanoyl = CCCCCCCCCCC(=O)*; Lauroyl = CCCCCCCCCCCC(=O)*; Orn = NCCC[C@H](N)C(=O)O

In data set [1], `CCCCCCCCCCC(=O)N[C@H](C(=O)NC[C@@H]1CC(=O)N[C@H](CO)C(=O)N[C@H](Cc2ccc(O)cc2)C(=O)N[C@H](CC(N)=O)C(=O)NCC(=O)N[C@@H](CC(N)=O)C(=O)N[C@@H](CO)C(=O)N[C@@H](CC(N)=O)C(=O)N1)[C@@H](C)O` [Compound 4a, Cyclo-[Undecanoic Acid-Thr-(S)-7-D-Ser-D-Tyr-D-Asn-Gly-Asn-Ser-Asn]] ([dS][dY][dN]GNSN; linker N-C via X12) displayed a tR of 10.4 min. Also, the MIC in data set [2] was >200 µg/mL.

For `CCCCCCCCCCC(=O)N[C@H](CO)C(=O)N[C@H]1CCCNC(=O)[C@H](CC(N)=O)NC(=O)[C@H](CO)NC(=O)[C@H](CC(N)=O)NC(=O)CNC(=O)[C@@H](CC(N)=O)NC(=O)[C@@H](Cc2ccc(O)cc2)NC(=O)[C@@H](CO)NC1=O` [Compound 6c, Cyclo-[Undecanoic Acid-D-Ser-Orn-D-Ser-D-Tyr-D-Asn-Gly-Asn-Ser-Asn]] (Undecanoyl-[dS][Orn][dS][dY][dN]GNSN; lactam 2-C), the MIC in data set [2] is >200 µg/mL.

In data set [1], `CCCCCCCCCCC(=O)N[C@H](C(=O)N[C@H]1CCCNC(=O)[C@H](CC(N)=O)NC(=O)[C@H](CO)NC(=O)[C@H](CC(N)=O)NC(=O)CNC(=O)[C@@H](CC(N)=O)NC(=O)[C@@H](Cc2ccc(O)cc2)NC(=O)[C@@H](CO)NC1=O)[C@@H](C)O` [Compound 7, Cyclo-[Undecanoic Acid-Thr-Orn-D-Ser-D-Tyr-D-Asn-Gly-Asn-Ser-Asn]] (Undecanoyl-T[Orn][dS][dY][dN]GNSN; lactam 2-C) came in with a tR of 10.6 min. Also, the MIC in data set [2] is >200 µg/mL.

Compound `CCCCCCCCCCC(=O)N[C@H](CO)C(=O)NC[C@H]1CC(=O)N[C@H](CO)C(=O)N[C@H](Cc2ccc(O)cc2)C(=O)N[C@H](CC(N)=O)C(=O)NCC(=O)N[C@@H](CC(N)=O)C(=O)N[C@@H](CO)C(=O)N[C@@H](CC(N)=O)C(=O)N1` [Compound 3g, Cyclo-[Undecanoic Acid-D-Ser-(R)-7-D-Ser-D-Tyr-D-Asn-Gly-Asn-Ser-Asn]] ([dS][dY][dN]GNSN; linker N-C via X1) gave a tR in data set [1] of 9.6 min. In addition, the MIC in data set [2] is >200 µg/mL.

On to `CCCCCCCCCCC(=O)N[C@@H](CO)C(=O)NC[C@@H]1CC(=O)N[C@H](CO)C(=O)N[C@H](Cc2ccc(O)cc2)C(=O)N[C@H](CC(N)=O)C(=O)NCC(=O)N[C@@H](CC(N)=O)C(=O)N[C@@H](CO)C(=O)N[C@@H](CC(N)=O)C(=O)N1` [Compound 3a, Cyclo-[Undecanoic Acid-Ser-(S)-7-D-Ser-D-Tyr-D-Asn-Gly-Asn-Ser-Asn]] ([dS][dY][dN]GNSN; linker N-C via X13), for which the tR in data set [1] is 9.3 min. For the same compound, in data set [2], the MIC is >200 µg/mL.

As for `CCCCCCCCNC(=O)[C@H](O)[C@@H](O)C(=O)NC[C@@H]1CC(=O)N[C@H](CO)C(=O)N[C@H](Cc2ccc(O)cc2)C(=O)N[C@H](CC(N)=O)C(=O)NCC(=O)N[C@@H](CC(N)=O)C(=O)N[C@@H](CO)C(=O)N[C@@H](CC(N)=O)C(=O)N1` [Compound 5a, Cyclo-[(2R,3R)-2,3-dihydroxy-4-(octylamino)-4-oxobutanoic Acid-(S)-7-D-Ser-D-Tyr-D-Asn-Gly-Asn-Ser-Asn]] ([dS][dY][dN]GNSN; linker N-C via X11), in data set [1], the tR worked out at 5.3 min. For the same compound, in data set [2], the MIC was >200 µg/mL.

Take `CCCCCCCCNC(=O)[C@H](O)[C@@H](O)C(=O)N[C@H]1CCCNC(=O)[C@H](CC(N)=O)NC(=O)[C@H](CO)NC(=O)[C@H](CC(N)=O)NC(=O)CNC(=O)[C@@H](CC(N)=O)NC(=O)[C@@H](Cc2ccc(O)cc2)NC(=O)[C@@H](CO)NC1=O` [Compound 8, Cyclo-[(2R,3R)-2,3-Dihydroxy-4-(octylamino)-4-oxobutanoic Acid-Orn-D-Ser-D-Tyr-D-Asn-Gly-Asn-Ser-Asn]] (X9-[Orn][dS][dY][dN]GNSN; lactam 1-C): the tR in data set [1] is 5.8 min. For the same compound, the MIC in data set [2] was >200 µg/mL.

`CCCCCCCCCCCC(=O)N[C@@H](CO)C(=O)NC[C@@H]1CC(=O)N[C@H](CO)C(=O)N[C@H](Cc2ccc(O)cc2)C(=O)N[C@H](CC(N)=O)C(=O)NCC(=O)N[C@@H](CC(N)=O)C(=O)N[C@@H](CO)C(=O)N[C@@H](CC(N)=O)C(=O)N1` [Compound 3b, Cyclo-[Dodecanoic Acid-Ser-(S)-7-D-Ser-D-Tyr-D-Asn-Gly-Asn-Ser-Asn]] ([dS][dY][dN]GNSN; linker N-C via X5) yielded a tR in data set [1] of 11.7 min. Further, in data set [2], the MIC worked out at 100 µg/mL (≈ 90.4 µM).

`CCCCCCCCCCC(=O)N[C@@H](CO)C(=O)NC[C@H]1CC(=O)N[C@H](CO)C(=O)N[C@H](Cc2ccc(O)cc2)C(=O)N[C@H](CC(N)=O)C(=O)NCC(=O)N[C@@H](CC(N)=O)C(=O)N[C@@H](CO)C(=O)N[C@@H](CC(N)=O)C(=O)N1` [Compound 3e, Cyclo-[Undecanoic Acid-Ser-(R)-7-D-Ser-D-Tyr-D-Asn-Gly-Asn-Ser-Asn]] ([dS][dY][dN]GNSN; linker N-C via X6) yielded a tR in data set [1] of 9.4 min. The MIC in data set [2] was >200 µg/mL.

As to `CCCCCCCCCCCC(=O)N[C@H](CO)C(=O)NC[C@@H]1CC(=O)N[C@H](CO)C(=O)N[C@H](Cc2ccc(O)cc2)C(=O)N[C@H](CC(N)=O)C(=O)NCC(=O)N[C@@H](CC(N)=O)C(=O)N[C@@H](CO)C(=O)N[C@@H](CC(N)=O)C(=O)N1` [Compound 3d, Cyclo-[Dodecanoic Acid-D-Ser-(S)-7-D-Ser-D-Tyr-D-Asn-Gly-Asn-Ser-Asn]] ([dS][dY][dN]GNSN; linker N-C via X4), the tR in data set [1] was determined as 11.8 min. In addition, the MIC in data set [2] is >200 µg/mL.

As for `CCCCCCCCCCCC(=O)N[C@H](CO)C(=O)NC[C@H]1CC(=O)N[C@H](CO)C(=O)N[C@H](Cc2ccc(O)cc2)C(=O)N[C@H](CC(N)=O)C(=O)NCC(=O)N[C@@H](CC(N)=O)C(=O)N[C@@H](CO)C(=O)N[C@@H](CC(N)=O)C(=O)N1` [Compound 3h, Cyclo-[Dodecanoic Acid-D-Ser-(R)-7-D-Ser-D-Tyr-D-Asn-Gly-Asn-Ser-Asn]] ([dS][dY][dN]GNSN; linker N-C via X7), in data set [1], the tR was 11.8 min. In addition, the MIC in data set [2] was >200 µg/mL.

`CCCCCCCCCCCC(=O)N[C@@H](CO)C(=O)NC[C@H]1CC(=O)N[C@H](CO)C(=O)N[C@H](Cc2ccc(O)cc2)C(=O)N[C@H](CC(N)=O)C(=O)NCC(=O)N[C@@H](CC(N)=O)C(=O)N[C@@H](CO)C(=O)N[C@@H](CC(N)=O)C(=O)N1` [Compound 3f, Cyclo-[Dodecanoic Acid-Ser-(R)-7-D-Ser-D-Tyr-D-Asn-Gly-Asn-Ser-Asn]] ([dS][dY][dN]GNSN; linker N-C via X10): in data set [1], the tR was 11.8 min. This compound also came in with an MIC in data set [2] of 200 µg/mL (≈ 181 µM).

For `CCCCCCCCCCCC(=O)N[C@H](CO)C(=O)N[C@H]1CCCNC(=O)[C@H](CC(N)=O)NC(=O)[C@H](CO)NC(=O)[C@H](CC(N)=O)NC(=O)CNC(=O)[C@@H](CC(N)=O)NC(=O)[C@@H](Cc2ccc(O)cc2)NC(=O)[C@@H](CO)NC1=O` [Compound 6d, Cyclo-[Dodecanoic Acid-D-Ser-Orn-D-Ser-D-Tyr-D-Asn-Gly-Asn-Ser-Asn]] (Lauroyl-[dS][Orn][dS][dY][dN]GNSN; lactam 2-C), the tR in data set [1] turned out to be 11.2 min. In addition, in data set [2], the MIC was >200 µg/mL.

`CCCCCCCCCCCC(=O)N[C@@H](CO)C(=O)N[C@H]1CCCNC(=O)[C@H](CC(N)=O)NC(=O)[C@H](CO)NC(=O)[C@H](CC(N)=O)NC(=O)CNC(=O)[C@@H](CC(N)=O)NC(=O)[C@@H](Cc2ccc(O)cc2)NC(=O)[C@@H](CO)NC1=O` [Compound 6b, Cyclo-[Dodecanoic Acid-Ser-Orn-D-Ser-D-Tyr-D-Asn-Gly-Asn-Ser-Asn]] (Lauroyl-S[Orn][dS][dY][dN]GNSN; lactam 2-C) came in with a tR in data set [1] of 12.1 min. For the same compound, the MIC in data set [2] is >200 µg/mL.

In data set [1], `CCCCCCCCCCC(=O)N[C@@H](CO)C(=O)N[C@H]1CCCNC(=O)[C@H](CC(N)=O)NC(=O)[C@H](CO)NC(=O)[C@H](CC(N)=O)NC(=O)CNC(=O)[C@@H](CC(N)=O)NC(=O)[C@@H](Cc2ccc(O)cc2)NC(=O)[C@@H](CO)NC1=O` [Compound 6a, Cyclo-[Undecanoic Acid-Ser-Orn-D-Ser-D-Tyr-D-Asn-Gly-Asn-Ser-Asn]] (Undecanoyl-S[Orn][dS][dY][dN]GNSN; lactam 2-C) returned a tR of 9.7 min. Also, the MIC in data set [2] was >200 µg/mL.

On to `CCCCCCCCCCC(=O)N[C@H](CO)C(=O)NC[C@@H]1CC(=O)N[C@H](CO)C(=O)N[C@H](Cc2ccc(O)cc2)C(=O)N[C@H](CC(N)=O)C(=O)NCC(=O)N[C@@H](CC(N)=O)C(=O)N[C@@H](CO)C(=O)N[C@@H](CC(N)=O)C(=O)N1` [Compound 3c, Cyclo-[Undecanoic Acid-D-Ser-(S)-7-D-Ser-D-Tyr-D-Asn-Gly-Asn-Ser-Asn]] ([dS][dY][dN]GNSN; linker N-C via X8), for which the tR in data set [1] is listed as 9.4 min. The MIC in data set [2] is >200 µg/mL.

A word on the MIC: it is the least concentration at which growth counts as inhibited. The low end stands for a more susceptible organism, the high end for a less susceptible organism.
